Data: patent US20240166671A1, “Novel Stannic Protoporfin Compositions, Methods of Making, and Uses Thereof” (Renibus Therapeutics, Inc., priority 2022, published 2024)

Experiments:
HO-1 = assay: HO-1/GAPDH mRNA (cortex) after IV FeS + SnPP, biomarker for oxidative stress; assay type: in vivo; settings: combined with iron sucrose; HO-1 as indicator of oxidative stress
Description: The SnPP composition of Example 1 and the Comparative Example (1 micromole) were combined with iron sucrose (1 mg) to assess biomarkers for oxidative stress.

[1] = system: cultured human tubule cells; assay: Cell viability of cultured human tubule cells exposed to SnPP; assay type: cell-based; settings: for % Viable Cells: n = 6, control 100%
Description: The composition of Example 1 and the Comparative Example were exposed to incubated cultured human tubule cells with different concentrations of SnPP.

SMILES: C=CC1=C(C)C2=Cc3c(C=C)c(C)c4[n]3[Sn]([Cl])([Cl])[n]3c(c(C)c(CCC(=O)O)c3=CC3=NC(=C4)C(C)=C3CCC(=O)O)=CC1=N2 [Example 1, Stannic protoporfin]
- HO-1 induction relative to comparative example (HO-1): lower HO-1 induction
- % Viable Cells ([1]; SnPP 10 nmol/mL): 97.9%
- % Viable Cells ([1]; SnPP 25 nmol/mL): 95.3%
- % Viable Cells ([1]; SnPP 75 nmol/mL): 88.9%
- cell killing ([1]; highest concentration of SnPP (75 nmol/mL)): 11%
- cell death relative to comparative example ([1]; human tubule cells): less cell death
